Article PMC11845761, “Intestinal human carboxylesterase 2 (CES2) expression rescues drug metabolism and most metabolic syndrome phenotypes in global Ces2 cluster knockout mice” (Acta Pharmacologica Sinica, 2024)
Read-outs that look alike come from different tables or passages of the source. Marks after values point to notes of the source that are not given here.

Assays:
[1] = Plasma pharmacokinetics of capecitabine and its metabolites after oral capecitabine in CES2-modified mice; assay type: in vivo, mouse; conditions: oral capecitabine 500 mg/kg, plasma; for AUC(0-t) / Cmax / Tmax: female, mouse, po, 500 mg/kg; for AUC(0-t): read-out: AUC0-2h; for Tmax: read-out: Tmax
Description: (§1) For capecitabine 2-h experiments, 6–7 female mice received oral capecitabine (500 mg/kg, 10 μL/g), and tail vein blood samples were collected at 0.125, 0.25, 0.5 and 1 h after drug administration. For the vinorelbine 4-h experiment, 6-7 male mice received vinorelbine intravenously (10 mg/kg, 5 μL/g) or orally (10 mg/kg, 10 μL/g) using a blunt-ended needle. Tail vein blood samples were collected at 0.125, 0.25, 0.5, 1 and 2 h after drug administration. […] At the last time point in each experiment (2 or 4 h), mice were anesthetized with 5% isoflurane and blood was collected by cardiac puncture. […] Plasma was isolated from the blood by centrifugation at 9000 × g for 6 min at 4 °C, and the plasma fraction was collected and stored at −30 °C until analysis.
(§2) Concentrations of capecitabine (and its metabolites) and vinorelbine (and its metabolite) in mouse plasma samples and organ homogenates were determined using two independent validated high-performance liquid chromatography-tandem mass spectrometry assays.
(§3) Pharmacokinetic parameters were calculated by non-compartmental methods using the PK solver software. […] Differences were considered statistically significant when P < 0.05. All data are presented as mean ± SD.

[2] = Tissue concentrations of capecitabine and its metabolites 2 h after oral capecitabine in CES2-modified mice; assay type: in vivo, mouse; conditions: oral capecitabine 500 mg/kg; for concentration at 2 h: female, mouse, oral, 500 mg/kg
Description: as §1, §2, §3

[3] = Ces2^–/– (Ces2 cluster knockout), female Ces2^–/– mice
[4] = Ces2^–/– (Ces2 cluster knockout), female Ces2^–/– mice, read-out: Cmax
[5] = female Ces2^–/–A mice, read-out: Cmax
[6] = female Ces2^–/–V mice, read-out: Cmax
[7] = female wild-type mice, read-out: Cmax
[8] = Ces2^-/-, liver, female Ces2^–/– mice, read-out: Cliver (liver concentration)
[9] = Ces2^-/-, small intestine, female Ces2^–/– mice, read-out: CSI (small intestine tissue concentration)
[10] = Ces2^-/-A, liver, female Ces2^–/–A mice, read-out: Cliver (liver concentration)
[11] = Ces2^-/-A, small intestine tissue, female Ces2^–/–A mice, read-out: CSI (small intestine tissue concentration)
[12] = Ces2^-/-V, liver, female Ces2^–/–V mice, read-out: Cliver (liver concentration)
[13] = Ces2^-/-V, small intestine, female Ces2^–/–V mice, read-out: CSI (small intestine tissue concentration)
[14] = colon, female Ces2^–/– mice, read-out: Ccolon (colon concentration)
[15] = colon, female Ces2^–/–A mice, read-out: Ccolon (colon concentration)
[16] = colon, female Ces2^–/–V mice, read-out: Ccolon (colon concentration)
[17] = colon, female wild-type mice, read-out: Ccolon (colon concentration)
[18] = liver, female wild-type mice, read-out: Cliver (liver concentration)
[19] = small intestine contents, female Ces2^–/– mice, read-out: CSIC (small intestine contents concentration)
[20] = small intestine contents, female Ces2^–/–A mice, read-out: CSIC (small intestine contents concentration)
[21] = small intestine contents, female Ces2^–/–V mice, read-out: CSIC (small intestine contents concentration)
[22] = small intestine contents, female wild-type mice, read-out: CSIC (small intestine contents concentration)
[23] = small intestine tissue, female wild-type mice, read-out: CSI (small intestine tissue concentration)

For `C[C@H]1O[C@@H](n2cc(F)c(N)nc2=O)[C@H](O)[C@@H]1O` [5’-DFCR, 5’-deoxy-5-fluorocytidine], which “AUC0-2h ratio (metabolite/capecitabine)” value ([1]; female Ces2^–/– mice) is on record?
The value was 6.4 ± 1.9.

What about the “AUC0-2h ratio (metabolite/capecitabine)” value ([1]; female Ces2^–/–A mice) of the same molecule?
The value was 6.4 ± 2.4.

And the “AUC0-2h ratio (metabolite/capecitabine)” value ([1]; female Ces2^–/–V mice)?
The value was 8.0 ± 2.2.

And the “AUC0-2h ratio (metabolite/capecitabine)” value ([1]; female wild-type mice)?
Its value is 21.3 ± 3.5.

What about the AUC(0-t) [1, 3] of the same molecule?
Its AUC(0-t) is 175000 ± 37300 ng·h/mL.

What about the Cmax [1, 4] of the same molecule?
Its Cmax is 121000 ± 23800 ng/mL.

What about the Tmax [1, 3] of the same molecule?
The Tmax was 27.6 ± 16.2 min.

And the AUC(0-t) ([1]; female Ces2^–/–A mice)?
Its AUC(0-t) is 165000 ± 45200 ng·h/mL.

And the Cmax [1, 5]?
The Cmax was 117000 ± 35700 ng/mL.

And the Tmax ([1]; female Ces2^–/–A mice)?
The Tmax was 27.6 ± 6 min.

What about the AUC(0-t) ([1]; female Ces2^–/–V mice) of the same molecule?
The AUC(0-t) was 123000 ± 34700 ng·h/mL.

And the Cmax [1, 6]?
The Cmax was 80000 ± 18200 ng/mL.

What about the Tmax ([1]; female Ces2^–/–V mice) of the same molecule?
The Tmax was 36.6 ± 22.8 min.

What about the AUC(0-t) ([1]; female wild-type mice) of the same molecule?
Its AUC(0-t) is 123000 ± 24900 ng·h/mL.

And the Cmax [1, 7]?
Its Cmax is 101000 ± 18000 ng/mL.

And the Tmax ([1]; female wild-type mice)?
The Tmax was 15 ± 8.4 min.

And the “Colon concentration ratio (metabolite/capecitabine)” value ([2]; female Ces2^–/– mice)?
The value was 2.0 ± 0.4.

And the “Liver concentration ratio (metabolite/capecitabine)” value ([2]; female Ces2^–/– mice)?
The value was 2.0 ± 0.6.

What about the “Small intestine concentration ratio (metabolite/capecitabine)” value ([2]; female Ces2^–/– mice) of the same molecule?
The value was 0.36 ± 0.20.

What about the “Small intestine contents concentration ratio (metabolite/capecitabine)” value ([2]; female Ces2^–/– mice) of the same molecule?
The value was 0.11 ± 0.04.

What about the “Colon concentration ratio (metabolite/capecitabine)” value ([2]; female Ces2^–/–A mice) of the same molecule?
The value was 3.2 ± 0.2.

What about the “Liver concentration ratio (metabolite/capecitabine)” value ([2]; female Ces2^–/–A mice) of the same molecule?
Its value is 8.8 ± 3.6.

And the “Small intestine concentration ratio (metabolite/capecitabine)” value ([2]; female Ces2^–/–A mice)?
Its value is 0.45 ± 0.21.

What about the “Small intestine contents concentration ratio (metabolite/capecitabine)” value ([2]; female Ces2^–/–A mice) of the same molecule?
Its value is 0.10 ± 0.06.

And the “Colon concentration ratio (metabolite/capecitabine)” value ([2]; female Ces2^–/–V mice)?
The value was 5.1 ± 2.1.

What about the “Liver concentration ratio (metabolite/capecitabine)” value ([2]; female Ces2^–/–V mice) of the same molecule?
The value was 4.0 ± 1.0***##^^.

And the “Small intestine concentration ratio (metabolite/capecitabine)” value ([2]; female Ces2^–/–V mice)?
The value was 1.80 ± 0.88^###^^^.

And the “Small intestine contents concentration ratio (metabolite/capecitabine)” value ([2]; female Ces2^–/–V mice)?
Its value is 0.13 ± 0.05.

What about the “Colon concentration ratio (metabolite/capecitabine)” value ([2]; female wild-type mice) of the same molecule?
The value was 6.9 ± 1.3.

And the “Liver concentration ratio (metabolite/capecitabine)” value ([2]; female wild-type mice)?
Its value is 17.4 ± 7.3.

What about the “Small intestine concentration ratio (metabolite/capecitabine)” value ([2]; female wild-type mice) of the same molecule?
The value was 3.20 ± 1.70.

What about the “Small intestine contents concentration ratio (metabolite/capecitabine)” value ([2]; female wild-type mice) of the same molecule?
Its value is 0.19 ± 0.08.

And the concentration at 2 h [2, 8]?
Its concentration at 2 h is 33300 ± 11600 ng/g.

What about the concentration at 2 h [2, 9] of the same molecule?
Its concentration at 2 h is 5410 ± 1430 ng/g.

What about the concentration at 2 h [2, 10] of the same molecule?
The concentration at 2 h was 36600 ± 5870 ng/g.

What about the concentration at 2 h [2, 11] of the same molecule?
The concentration at 2 h was 6220 ± 1830 ng/g.

And the concentration at 2 h [2, 12]?
Its concentration at 2 h is 23300 ± 8530 ng/g.

And the concentration at 2 h [2, 13]?
The concentration at 2 h was 3600 ± 1570 ng/g.

What about the concentration at 2 h [2, 14] of the same molecule?
Its concentration at 2 h is 25700 ± 10700 ng/g.

And the concentration at 2 h [2, 15]?
Its concentration at 2 h is 28200 ± 5870 ng/g.

What about the concentration at 2 h [2, 16] of the same molecule?
The concentration at 2 h was 21200 ± 8100 ng/g.

And the concentration at 2 h [2, 17]?
The concentration at 2 h was 14900 ± 3800 ng/g.

What about the concentration at 2 h [2, 18] of the same molecule?
The concentration at 2 h was 20300 ± 5740 ng/g.

What about the concentration at 2 h [2, 19] of the same molecule?
The concentration at 2 h was 10800 ± 5610 ng/g.

And the concentration at 2 h [2, 20]?
The concentration at 2 h was 8120 ± 2840 ng/g.

What about the concentration at 2 h [2, 21] of the same molecule?
Its concentration at 2 h is 5180 ± 2410 ng/g.

What about the concentration at 2 h [2, 22] of the same molecule?
Its concentration at 2 h is 4410 ± 2350 ng/g.

And the concentration at 2 h [2, 23]?
Its concentration at 2 h is 4510 ± 1340 ng/g.

What does the source list for `O=c1[nH]cc(F)c(=O)[nH]1` [5-FU, 5-fluorouracil, reference compound]?
AUC0-2h ratio (×10^−3) (5-FU/capecitabine) ([1]; female Ces2^–/– mice): 6.4 ± 2.1 ×10^−3; AUC0-2h ratio (×10^−3) (5-FU/capecitabine) ([1]; female Ces2^–/–A mice): 8.0 ± 2.7 ×10^−3; AUC0-2h ratio (×10^−3) (5-FU/capecitabine) ([1]; female Ces2^–/–V mice): 13 ± 1.6***^###^ ×10^−3; AUC0-2h ratio (×10^−3) (5-FU/capecitabine) ([1]; female wild-type mice): 29 ± 8.1 ×10^−3; AUC(0-t) [1, 3]: 187 ± 98 ng·h/mL; Cmax [1, 4]: 147 ± 96 ng/mL; Tmax [1, 3]: 55.8 ± 11.4 min; AUC(0-t) ([1]; female Ces2^–/–A mice): 218 ± 79 ng·h/mL; Cmax [1, 5]: 159 ± 56 ng/mL; Tmax ([1]; female Ces2^–/–A mice): 55.2 ± 12 min; AUC(0-t) ([1]; female Ces2^–/–V mice): 215 ± 100 ng·h/mL; Cmax [1, 6]: 156 ± 81 ng/mL; Tmax ([1]; female Ces2^–/–V mice): 51.6 ± 14.4 min; AUC(0-t) ([1]; female wild-type mice): 168 ± 41 ng·h/mL; Cmax [1, 7]: 105 ± 36 ng/mL; Tmax ([1]; female wild-type mice): 30 ± 16.2 min; Cmax ([1]; female wild-type, Ces2^–/–, Ces2^–/–A and Ces2^–/–V mice, read-out: mean Cmax, range over the mouse models): 105 to 159 ng/mL; Colon concentration ratio (metabolite/capecitabine) ([2]; female Ces2^–/– mice): 0.14 ± 0.03; Liver concentration ratio (metabolite/capecitabine) ([2]; female Ces2^–/– mice): 0.09 ± 0.03; Small intestine concentration ratio (metabolite/capecitabine) ([2]; female Ces2^–/– mice): 0.32 ± 0.10; Small intestine contents Ratio (x 10^-3) (5-FU/Capecitabine) ([2]; female Ces2^–/– mice): 2.1 ± 0.7 x 10^-3; Colon concentration ratio (metabolite/capecitabine) ([2]; female Ces2^–/–A mice): 0.17 ± 0.02; Liver concentration ratio (metabolite/capecitabine) ([2]; female Ces2^–/–A mice): 0.52 ± 0.25; Small intestine concentration ratio (metabolite/capecitabine) ([2]; female Ces2^–/–A mice): 0.32 ± 0.11; Small intestine contents Ratio (x 10^-3) (5-FU/Capecitabine) ([2]; female Ces2^–/–A mice): 1.9 ± 1.6 x 10^-3; Colon concentration ratio (metabolite/capecitabine) ([2]; female Ces2^–/–V mice): 0.50 ± 0.18^###^^^; Liver concentration ratio (metabolite/capecitabine) ([2]; female Ces2^–/–V mice): 0.24 ± 0.07***^###^; Small intestine concentration ratio (metabolite/capecitabine) ([2]; female Ces2^–/–V mice): 2.0 ± 0.9^###^^^; Small intestine contents Ratio (x 10^-3) (5-FU/Capecitabine) ([2]; female Ces2^–/–V mice): 6.8 ± 3.0##^^ x 10^-3; Colon concentration ratio (metabolite/capecitabine) ([2]; female wild-type mice): 0.53 ± 0.09; Liver concentration ratio (metabolite/capecitabine) ([2]; female wild-type mice): 0.65 ± 0.31; Small intestine concentration ratio (metabolite/capecitabine) ([2]; female wild-type mice): 2.1 ± 0.8; Small intestine contents Ratio (x 10^-3) (5-FU/Capecitabine) ([2]; female wild-type mice): 5.1 ± 3.4 x 10^-3; concentration at 2 h [2, 8]: 1520 ± 765 ng/g; concentration at 2 h [2, 9]: 5200 ± 2040 ng/g; concentration at 2 h [2, 10]: 2140 ± 372 ng/g; concentration at 2 h [2, 11]: 4430 ± 1510 ng/g; concentration at 2 h [2, 12]: 1420 ± 574 ng/g; concentration at 2 h [2, 13]: 4120 ± 1840 ng/g; concentration at 2 h [2, 14]: 1830 ± 1010 ng/g; concentration at 2 h [2, 15]: 1460 ± 233 ng/g; concentration at 2 h [2, 16]: 2100 ± 1020 ng/g; concentration at 2 h [2, 17]: 1190 ± 486 ng/g; concentration at 2 h [2, 18]: 747 ± 184 ng/g; concentration at 2 h [2, 19]: 200 ± 109 ng/g; concentration at 2 h [2, 20]: 142 ± 64 ng/g; concentration at 2 h [2, 21]: 263 ± 149 ng/g; concentration at 2 h [2, 22]: 125 ± 90 ng/g; concentration at 2 h [2, 23]: 3020 ± 835 ng/g
